Experimental data from patent US7105554B2, “Benzylidene thiazolidinediones and their use as antimycotic agents” (priority 2000, dated 2006).

What was measured:
[1] = molecular target: T1, Candida albicans PMT-1 enzyme (Candida albicans, UniProt O74189); test: PMT-1 Assay; assay type: biochemical; conditions: transfer of [3H]-mannose from dolicholphosphomannose to peptide DYATAV, Candida albicans membrane protein, 60 minutes at 25° C., pH 8.0; read-out: PMT-1 Inhibition (IC50, microM)
T1 construct: 25 μg of Candida albicans membrane protein; endogenous in cells
Description: The assay method is based upon the transfer of a radiolabelled mannose moiety from dolicholphosphomannose onto a threonine hydroxyl residue in a short peptide, as catalysed by the Candida albicans PMT-1 enzyme. Dolicholphospho-[^3H]-mannose is synthesised enzymatically from GDP-[^3H]-mannose and purified by chloroform:methanol extraction.
100000 Dpm of the generated substrate is incubated with 400 μg phosphatidylcholine, 25 μg of peptide (DYATAV) and 25 μg of Candida albicans membrane protein in a final volume of 50 μl in 100 mM Tris/1 mM MgCl2 buffer, pH 8.0. After 60 minutes at 25° C., the reaction is stopped with 50 μl of methanol. The unreacted radiolabel is removed by the addition of 150 μl of 0.4 g/ml octadecyl-functionalised silica (C18) in methanol. The C18 material is removed by centrifugation and the activity transferred to the peptide is counted in the supernatant.

[2] = test system: Candida albicans (strain SC5314); test: G418 Sensitivity Assay; assay type: cell-based; conditions: concentration giving 50% reduction in cell growth relative to culture with G418 alone, strain SC5314, overnight at 37° C., OD600 nm, 1% DMSO
Description: This assay is based upon the observed increased sensitivity of the pmt1−/− Candida strain to Geneticin (G418) (6). 100 μl of a 0.1 OD600 nm culture of Candida albicans (strain SC5314) is placed into a 96 well plate in the presence or absence of varying concentrations of test compound. The compounds are initially dissolved in DMSO and added to the cultures at a final DMSO concentration of 1%. G418 is added to a final concentration of 100 [2 g/ml. In the absence of PMT1 inhibition, this concentration of G418 has no effect on the proliferation of the organism. The cultures are grown overnight at 37° C. and cell density is then estimated by an OD600 nm measurement. The effect of the test compound is calculated as the concentration that gives a 50% reduction in cell growth relative to the culture with G418 alone.

T1 sequence (O74189 whole entry): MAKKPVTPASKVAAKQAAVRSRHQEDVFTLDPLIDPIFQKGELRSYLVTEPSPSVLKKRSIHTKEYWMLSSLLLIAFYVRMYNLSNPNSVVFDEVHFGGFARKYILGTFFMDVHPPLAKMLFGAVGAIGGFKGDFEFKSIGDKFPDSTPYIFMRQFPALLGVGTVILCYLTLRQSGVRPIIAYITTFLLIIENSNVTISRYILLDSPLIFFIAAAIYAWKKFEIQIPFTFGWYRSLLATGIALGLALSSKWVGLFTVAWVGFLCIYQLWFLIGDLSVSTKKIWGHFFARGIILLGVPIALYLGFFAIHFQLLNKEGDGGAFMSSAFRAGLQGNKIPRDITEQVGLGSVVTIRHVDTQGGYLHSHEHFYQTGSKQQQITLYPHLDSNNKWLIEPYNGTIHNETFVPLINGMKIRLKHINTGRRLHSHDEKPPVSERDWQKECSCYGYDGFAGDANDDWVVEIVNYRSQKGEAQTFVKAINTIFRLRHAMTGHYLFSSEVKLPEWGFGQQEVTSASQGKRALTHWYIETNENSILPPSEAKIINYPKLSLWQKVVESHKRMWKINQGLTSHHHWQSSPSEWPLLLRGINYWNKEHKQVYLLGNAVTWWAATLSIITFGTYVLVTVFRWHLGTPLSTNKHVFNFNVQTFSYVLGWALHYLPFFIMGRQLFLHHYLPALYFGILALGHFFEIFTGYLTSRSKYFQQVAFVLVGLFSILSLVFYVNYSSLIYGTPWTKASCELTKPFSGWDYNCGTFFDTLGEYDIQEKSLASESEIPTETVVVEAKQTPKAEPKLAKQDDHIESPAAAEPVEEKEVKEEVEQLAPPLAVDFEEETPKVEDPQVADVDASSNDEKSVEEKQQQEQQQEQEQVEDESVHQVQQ
T1 sequence (Q5ADM9 whole entry, further chain): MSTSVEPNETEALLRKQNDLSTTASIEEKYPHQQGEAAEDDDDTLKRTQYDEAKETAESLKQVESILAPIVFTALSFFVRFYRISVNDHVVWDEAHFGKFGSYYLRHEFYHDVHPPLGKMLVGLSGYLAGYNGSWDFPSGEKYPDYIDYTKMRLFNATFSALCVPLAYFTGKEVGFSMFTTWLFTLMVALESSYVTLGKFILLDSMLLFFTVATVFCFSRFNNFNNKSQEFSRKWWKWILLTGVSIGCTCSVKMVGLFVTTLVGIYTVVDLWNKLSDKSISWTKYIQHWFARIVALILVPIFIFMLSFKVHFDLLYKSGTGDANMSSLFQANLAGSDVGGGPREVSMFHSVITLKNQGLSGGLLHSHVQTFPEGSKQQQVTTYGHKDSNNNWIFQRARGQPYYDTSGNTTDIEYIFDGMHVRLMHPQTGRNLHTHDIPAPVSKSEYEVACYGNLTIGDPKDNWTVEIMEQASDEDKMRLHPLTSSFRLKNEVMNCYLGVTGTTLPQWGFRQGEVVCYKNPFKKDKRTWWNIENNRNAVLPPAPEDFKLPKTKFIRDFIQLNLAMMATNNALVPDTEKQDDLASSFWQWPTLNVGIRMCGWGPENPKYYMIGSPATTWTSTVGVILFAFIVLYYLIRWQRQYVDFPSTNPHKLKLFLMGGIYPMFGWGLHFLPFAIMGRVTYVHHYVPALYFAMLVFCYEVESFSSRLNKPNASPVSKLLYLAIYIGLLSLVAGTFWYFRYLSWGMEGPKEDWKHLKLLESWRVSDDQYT

Compound O=C(O)CN1C(=O)/C(=C/c2ccc(OCc3ccccc3)c(OCc3ccccc3)c2)SC1=S [Example 29, 5-[[3,4-bis(phenylmethoxy)phenyl]methylene]-4-oxo-2-thioxo-3-thiazolidineacetic acid] has a melting point of 235 to 238 °C.
Compound O=C(O)CN1C(=O)/C(=C/c2ccc(OCc3cccc(C(F)(F)F)c3)c(OCc3ccccc3)c2)SC1=S [Example 39, 5-[[3-(Phenylmethoxy)-4-[(3-trifluoromethylphenyl)methoxy]phenyl]-methylene]-4-oxo-2-thioxo-3-thiazolidineacetic acid] has an IC50 [1] of 2 µM and an IC50 [2] of 650 nM.
With O=C(O)CN1C(=O)/C(=C/c2ccc(OCc3ccc(OC(F)(F)F)cc3)c(OCc3ccccc3)c2)SC1=S [Example 42, 5-[[3-(Phenylmethoxy)-4-[(4-trifluoromethoxyphenyl)methoxy]-phenyl]-methylene]-4-oxo-2-thioxo-3-thiazolidineacetic acid] the IC50 [1] was 1 µM and the IC50 [2] was 350 nM.
In the case of O=C(O)CN1C(=O)/C(=C/c2ccc(OCc3ccc(Cl)cc3)c(OCc3ccccc3)c2)SC1=S [Example 44, 5-[[4-[(4-Chlorophenyl)methoxy] 3-(phenylmethoxy)phenyl]-methylene]-4-oxo-2-thioxo-3-thiazolidineacetic acid], the IC50 [1] is reported as 1 µM and the IC50 [2] is reported as 600 nM.
C[C@H](COc1ccc(/C=C2\SC(=S)N(CC(=O)O)C2=O)cc1O[C@@H](c1ccccc1)C(F)(F)F)c1ccccc1 [Example 60, 5-[[3-[(S)-1-Phenyl-2,2,2-trifluoroethoxy]-4-[(S)-2-phenylpropoxy]-phenyl]methylene]-4-oxo-2-thioxo-3-thiazolidineacetic acid] showed a melting point of 73 to 80 °C.
